These are literature values, as cited in US7141428B2 (priority 2000, dated 2006).

The test system of one data set is growth cone collapse. To be noted: collapse induced by activation of Rho or ROK.
Data set [1] deals with Rho kinase (Rho-associated protein kinase, p160ROCK) (Homo sapiens, UniProt Q13464).

Structures are written as SMILES.

Rho kinase (Rho-associated protein kinase, p160ROCK), sequence (Q13464 whole entry, looked up): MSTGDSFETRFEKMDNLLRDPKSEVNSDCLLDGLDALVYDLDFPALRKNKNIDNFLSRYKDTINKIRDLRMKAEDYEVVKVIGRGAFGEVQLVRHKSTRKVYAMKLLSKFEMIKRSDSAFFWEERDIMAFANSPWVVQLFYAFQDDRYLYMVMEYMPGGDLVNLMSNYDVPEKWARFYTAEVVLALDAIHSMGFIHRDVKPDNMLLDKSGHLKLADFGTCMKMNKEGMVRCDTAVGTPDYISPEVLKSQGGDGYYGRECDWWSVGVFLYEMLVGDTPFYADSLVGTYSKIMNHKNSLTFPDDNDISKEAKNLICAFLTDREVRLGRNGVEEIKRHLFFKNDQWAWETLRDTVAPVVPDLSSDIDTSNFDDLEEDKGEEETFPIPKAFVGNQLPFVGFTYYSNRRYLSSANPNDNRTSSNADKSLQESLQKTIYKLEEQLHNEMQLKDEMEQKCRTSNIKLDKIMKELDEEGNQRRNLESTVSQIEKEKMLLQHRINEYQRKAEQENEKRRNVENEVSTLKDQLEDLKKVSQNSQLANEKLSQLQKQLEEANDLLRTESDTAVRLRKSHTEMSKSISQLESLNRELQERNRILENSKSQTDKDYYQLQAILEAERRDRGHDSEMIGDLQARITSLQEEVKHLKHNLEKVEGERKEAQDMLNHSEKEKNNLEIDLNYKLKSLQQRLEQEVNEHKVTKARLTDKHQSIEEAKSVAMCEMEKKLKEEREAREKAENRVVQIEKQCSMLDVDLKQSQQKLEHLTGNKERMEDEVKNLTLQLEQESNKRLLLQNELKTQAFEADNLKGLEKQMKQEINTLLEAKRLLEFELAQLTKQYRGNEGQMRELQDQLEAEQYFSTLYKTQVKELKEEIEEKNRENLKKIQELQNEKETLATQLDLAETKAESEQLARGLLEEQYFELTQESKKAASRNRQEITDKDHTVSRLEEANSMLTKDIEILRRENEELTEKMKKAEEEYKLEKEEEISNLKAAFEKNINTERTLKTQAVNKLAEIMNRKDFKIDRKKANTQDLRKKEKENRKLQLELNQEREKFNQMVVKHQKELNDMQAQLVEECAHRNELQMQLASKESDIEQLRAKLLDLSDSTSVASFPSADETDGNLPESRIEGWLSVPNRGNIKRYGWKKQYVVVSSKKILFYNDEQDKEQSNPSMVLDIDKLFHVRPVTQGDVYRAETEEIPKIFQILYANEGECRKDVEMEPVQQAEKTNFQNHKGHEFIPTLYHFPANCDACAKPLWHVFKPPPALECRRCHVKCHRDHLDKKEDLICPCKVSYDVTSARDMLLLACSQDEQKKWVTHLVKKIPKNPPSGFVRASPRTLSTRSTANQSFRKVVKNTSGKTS

`C[C@@H](N)[C@H]1CC[C@H](C(=O)Nc2ccncc2)CC1` [Y-27632, (R)-(+)-trans-N-(4-pyridyl)-4-(1-aminoethyl)-cyclohexanecarboamide]: the “prevention of growth cone collapse” value in the data set on growth cone collapse is “can be prevented”. Further, the “concentration at which Rho kinase is inhibited” value in data set [1] is “sub-micromolar”.
